According to patent US20040171566A1, “Antisense modulation of p38 mitogen activated protein kinase expression” (priority 1999, published 2004):

Experiments:
[1] = mouse, in vivo
Protocol: For the aerosol studies, the protocol described above was slightly modified. Male Balb/c mice were injected IP with OVA (20 μg) in aluminum hydroxide on days 0 and 14. Aerosol dosing was performed with nebulized sterile saline, antisense oligonucleotide or mismatched control oligonucleotide using 25, 125 and 250 μg/ml solutions (5 mg/kg) for 30 min. on days 14-20 in a closed chamber. Aerosol lung challenge was carried out with nebulized saline or 1% OVA for 20 min. on days 18, 19 and 20. BAL fluid was collected at 24 hr post-last lung challenge (cell differentials) or at 2-12 h post-challenge (cytokine analysis). AHR was measured 24 hours after OVA challenge. Mice were exposed to aerosolized methacholine 24 hr post-last lung challenge from 2-80 mg/ml for 3 min. until a 200% increase in Penh was achieved.

p38α = p38α knock-down in mouse T cell line EL4, Western blotting; assay type: cell-based
rat p38α mRNA = assay: Rat p38α mRNA levels in NR-8383 cells, quantitative real-time PCR; assay type: cell-based; conditions: 300 nM oligonucleotide with FuGENE 6, 24 hours, mRNA by quantitative real-time PCR, average of two experiments
mouse p38α mRNA = assay: Mouse p38α mRNA levels in bEND.3 cells, quantitative real-time PCR; assay type: cell-based; parameters: % Inhib. mouse p38α: concentration or dose not given beside the values
Summary of the method: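 Mouse bEND.3 cells, antisense oligonucleotide-treated; p38α mRNA measured by one-step real-time RT-PCR (RT 30 min at 48 °C, then 40 cycles) with a FAM/TAMRA probe. Levels normalized to GAPDH or RiboGreen total RNA, and percent inhibition derived from standard curves of untreated-control mRNA.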

For “ISIS 101757: antisense oligonucleotide targeted to mouse p38α, SEQ ID NO 177; 2′-MOE gapmer, all phosphorothioate linkages (antisense AGGTGCTCAGGACTCCATTT; all phosphorothioate, sugars by position and methylation of C not given here; 2'-MOE gapmer)”, the “Oligonucleotide levels in lung tissue sufficient to achieve the pharmacological effects” value [1] was “up to 1 μg/g”, the p38α knock-down effect (p38α) was “confirmed” and the “% Inhib. rat p38α” value (rat p38α mRNA) was 53%. For the same substance, the “% Inhib. mouse p38α” value (mouse p38α mRNA; bEND.3 cells, mRNA by quantitative real-time PCR, average of two experiments) was 88% and the IC50 (mouse p38α mRNA; endothelial cells, read-out: IC50 for reducing p38α mRNA) was under 50 nM.
